From ChEMBL document CHEMBL1144267, “New conformationally locked bicyclic N,O-nucleoside analogues of antiviral drugs” (2005)

Tests used:
Assay type in all cases: functional
Human alphaherpesvirus 1 [1] = assay: Antiviral efficacy in Vero cells infected with HSV-1 at concentration of 100 uM
Human alphaherpesvirus 1 [2] = assay: Antiviral efficacy in Vero cells infected with HSV-1 at concentration of 200 uM
Human alphaherpesvirus 1 [3] = assay: Antiviral efficacy in Vero cells infected with HSV-1 at concentration of 400 uM
Human alphaherpesvirus 1 [4] = assay: Antiviral efficacy in Vero cells infected with HSV-1 at concentration of 800 uM

| Compound | Cells killed (Human alphaherpesvirus 1 [1]) | Cells killed (Human alphaherpesvirus 1 [2]) | Cells killed (Human alphaherpesvirus 1 [3]) | Cells killed (Human alphaherpesvirus 1 [4]) |
| --- | --- | --- | --- | --- |
| Nc1ccn(C2CC3CCCN3O2)c(=O)n1 (configuration not stated) | -3% | -3% | -6% | -67% |
| Cc1cn(C2CC3CCCN3O2)c(=O)[nH]c1=O (configuration not stated) | -5% | -10% | -12% | -55% |
| O=c1ccn(C2CC3CCCN3O2)c(=O)[nH]1 (configuration not stated) | -41% | -55% | -70% | -83% |
